Reference: US6417174B1, “Inhibitors of β-lactamases and uses therefor” (Northwestern University, priority 1997, dated 2002)
Read-outs that look alike come from different tables or passages of the source.

Columns and labels:
[1] = target: Enterobacter cloacae P99 β-lactamase (Enterobacter cloacae, UniProt P05364); conditions: Dryjanski and Pratt, Biochemistry 34, 3561-3568 (1995); cited from earlier work
[2] = target: T1, TEM-1 β-lactamase from E. coli (Escherichia coli, UniProt P62593); assay: Inhibition of TEM-1 β-lactamase, spectrophotometric assay (FAP substrate); assay type: biochemical
T1 construct: gift: Natalie Strynadka, University of Alberta

[3] = target: AmpC β-lactamase from E. coli (Escherichia coli, UniProt P00811); assay: biochemical; assay type: biochemical
[4] = system: β-lactamase derepressed strain of Enterobacter cloacae (Ent-Der); assay: microbe, parasite or virus in culture; assay type: cell-based; conditions: for MIC of ceftazidime plus inhibitor: proportion 4/1, given as CAZ/inhibitor; for MIC of inhibitor used alone without ceftazidime: Table 3B; for MIC of amoxicillin plus inhibitor: Table 4A, proportion 4/1; for MIC of amoxicillin plus inhibitor / MIC of inhibitor used alone without amoxicillin: Ent-Der.; for MIC of inhibitor used alone without amoxicillin: Table 4B, not tested above 128 μg/ml, “256” indicates no inhibition of cell growth; on MIC of ceftazidime plus inhibitor: values in µg/ml
Method: (§1) After incubation, the growth of the cells was visually inspected. The minimum inhibitory concentration (MIC) is the lowest concentration where there no cell growth was observed.
(§2) The following strains were used: Enterobacter cloacae cell line with derepressed β-lactamase production (Ent-Der), and Escherichia coli RYC1000 (araD139 D lacU169 rpsL D rib7 thiA gyrA recA56) cell lines, harboring the plasmid pBGS19 (with no β-lactamase), or the β-lactamase containing plasmids pBGAmpC (AmpC β-lactamase from E. coli; Eco-AmpC), or pBGAmpC-MHN (AmpC β-lactamase from Enterobacter cloacae; Eco-AmpCEnt). […] TEM-10 and TEM-24 differ from TEM-1 due to the following point substitutions: TEM-10 (R164S, E240K); TEM-24 (L102K, L162S, S235T, A237K). TEM-10 and TEM-24 also differ from TEM-1 in being extended spectrum enzymes (i.e., they react with a greater range of substrates than TEM-1). Also tested were clinical isolates of Pseudomonas aeruginosa. All bacterial strains and plasmids are available from Jesus Blazquez and Fernando Baquero, Servicio de Microbiologia, Hospital Ramon y Cajal, National Institute of Health, Madrid, Spain.
(§3) Several ratios, including 1:1, 2:1, 4:1, and 1:3, of β-lactam antibiotic (amoxicillin (AX) or ceftazidime (CAZ)) to boronic acid compound were used in the assays. Tazobactam (TAZO), a clinically used β-lactamase inibitor, was used as a positive control.

[5] = system: E. coli RYC1000 harboring plasmid pBGS19 (no β-lactamase); assay: microbe, parasite or virus in culture; assay type: cell-based, Escherichia coli; conditions: for MIC of ceftazidime plus inhibitor: proportion 4/1; for MIC of inhibitor used alone without ceftazidime: Table 3B; for MIC of inhibitor used alone without amoxicillin: Table 4B, EC, not tested above 128 μg/ml, “256” indicates no inhibition of cell growth
Method: as §1, §2, §3

[6] = system: E. coli RYC1000 harboring plasmid pBGAmpC-MHN (AmpC β-lactamase of Enterobacter cloacae); assay: microbe, parasite or virus in culture; assay type: cell-based, Escherichia coli; conditions: for MIC of ceftazidime plus inhibitor: proportion 4/1, given as CAZ/inhibitor; for MIC of inhibitor used alone without ceftazidime: Table 3B; for MIC of amoxicillin plus inhibitor: Table 4A, EC-AmpCEn, proportion 4/1; for MIC of inhibitor used alone without amoxicillin: Table 4B, ECAmpCEn, not tested above 128 μg/ml, “256” indicates no inhibition of cell growth; on MIC of ceftazidime plus inhibitor: values in µg/ml
Method: as §1, §2, §3

[7] = system: E. coli RYC1000 harboring plasmid pBGTEM-24 (TEM-24 β-lactamase); assay: microbe, parasite or virus in culture; assay type: cell-based, Escherichia coli; conditions: for MIC of ceftazidime plus inhibitor: proportion 4/1, given as CAZ/inhibitor; for MIC of inhibitor used alone without ceftazidime: Table 3B; on MIC of ceftazidime plus inhibitor: values in µg/ml
Method: as §1, §2, §3

[8] = system: Ps. aeruginosa-3 (clinical isolate); assay: Antibacterial activity, wider range of bacteria; assay type: cell-based, Pseudomonas aeruginosa; conditions: Table 6
Method: (§4) Bacterial cell culture testing was performed and interpreted following the guidelines of the National Committee for Clinical Laboratory Standards (National Committee for Clinical Laboratory Standards. Methods for Dilution Antimicrobial Susceptibility Tests for Bacteria that Grow Aerobically. Approved Standard M7-A3. National Committee for Clinical Laboratory Standards, Villanova, Pa. 1993). After incubation, the growth of the cells was visually inspected. The minimum inhibitory concentration (MIC) is the lowest concentration where there no cell growth was observed.
(§5) All bacterial strains and plasmids are available from Jesus Blazquez and Fernando Baquero, Servicio de Microbiologia, Hospital Ramon y Cajal National Institute of Health, Madrid, Spain.

[9] = system: Ps. aeruginosa-2 (clinical isolate); assay: Antibacterial activity, wider range of bacteria; assay type: cell-based, Pseudomonas aeruginosa; conditions: Table 6
Method: as §4, §5

[10] = system: MC4100/AmpC-Enter (OmpF-); assay: Antibacterial activity, wider range of bacteria; assay type: cell-based, E. coli; conditions: Table 6
Method: as §4, §5

[11] = system: MC4100/AmpC-Enter (OmpR-); assay: Antibacterial activity, wider range of bacteria; assay type: cell-based, E. coli; conditions: Table 6
Method: as §4, §5

MC4 100/AmpC-Enter = assay: Antibacterial activity, wider range of bacteria; assay type: cell-based, E. coli; conditions: Table 6
Method: as §4, §5

[12] = system: MC4100/AmpC-Enter (OmpC-); assay: Antibacterial activity, wider range of bacteria; assay type: cell-based, E. coli; conditions: Table 6
Method: as §4, §5

[13] = system: MC4100/AmpC-E. coli (OmpF-); assay: Antibacterial activity, wider range of bacteria; assay type: cell-based; conditions: Table 6
Method: as §4, §5

[14] = system: Enterobacter cloacae derrepressed (clinical isolate); assay: Antibacterial activity, wider range of bacteria; assay type: cell-based; conditions: Table 6
Method: as §4, §5

[15] = system: MC4100/AmpC-E. coli (OmpR-); assay: Antibacterial activity, wider range of bacteria; assay type: cell-based; conditions: Table 6
Method: as §4, §5

[16] = system: Citrobacter freundii derrepressed (clinical isolate); assay: Antibacterial activity, wider range of bacteria; assay type: cell-based; conditions: Table 6
Method: as §4, §5

[17] = system: MC4100/AmpC-E. coli (OmpC-); assay: Antibacterial activity, wider range of bacteria; assay type: cell-based; conditions: Table 6
Method: as §4, §5

[18] = system: E. coli derrepr. (clinical isolate); assay: Antibacterial activity, wider range of bacteria; assay type: cell-based; conditions: Table 6
Method: as §4, §5

[19] = system: Pseudomonas aeruginosa-1 (clinical isolate); assay: Antibacterial activity, wider range of bacteria; assay type: cell-based; conditions: Table 6
Method: as §4, §5

MC4100/AmpC-E. coli = assay: Antibacterial activity, wider range of bacteria; assay type: cell-based; conditions: Table 6
Method: as §4, §5

[20] = system: E. coli RYC1000 harboring pBGAmpC-E. coli producing AmpC (ECR-AmpCEc); assay: microbe, parasite or virus in culture; assay type: cell-based, Escherichia coli; conditions: ECR-AmpCEc; for MIC of amoxicillin plus inhibitor: Table 4A, proportion 4/1; for MIC of inhibitor used alone without amoxicillin: Table 4B, not tested above 128 μg/ml, “256” indicates no inhibition of cell growth
Method: as §1, §2, §3

[21] = system: E. coli RYC1000 harboring pBGTEM-10 producing TEM-10 β-lactamase (EC-T10); assay: microbe, parasite or virus in culture; assay type: cell-based, Escherichia coli; conditions: EC-T10; for MIC of amoxicillin plus inhibitor: Table 4A, proportion 4/1; for MIC of inhibitor used alone without amoxicillin: Table 4B, not tested above 128 μg/ml, “256” indicates no inhibition of cell growth
Method: as §1, §2, §3

[22] = system: E. coli RYC1000 harboring a plasmid coding for a mutant of AmpC from Enterobacter (ECR-AmpCEnM); assay: microbe, parasite or virus in culture; assay type: cell-based, Escherichia coli; conditions: for MIC of amoxicillin plus inhibitor: Table 4A, ECR-AmpCEnM, proportion 4/1; for MIC of inhibitor used alone without amoxicillin: Table 4B, ECRAmpCEnM, not tested above 128 μg/ml, “256” indicates no inhibition of cell growth
Method: as §1, §2, §3

[23] = system: E. coli RYC1000 harboring pBGTEM-1 producing TEM-1 β-lactamase (EC-T1); assay: microbe, parasite or virus in culture; assay type: cell-based, Escherichia coli; conditions: EC-T1; for MIC of amoxicillin plus inhibitor: Table 4A, proportion 4/1; for MIC of inhibitor used alone without amoxicillin: Table 4B, not tested above 128 μg/ml, “256” indicates no inhibition of cell growth
Method: as §1, §2, §3

[24] = Tables 2A/2B, pH 7.0, 25° C., 100 μM FAP, N.I. = no inhibition observed at an inhibitor concentration of 100 μM, read-out: Ki E. coli TEM-1
[25] = Tables 2A/2B, pH 7.0, 25° C., 100 μM cephalothin, read-out: Ki E. coli AmpC

Chain of AmpC β-lactamase from E. coli (P00811 20-377): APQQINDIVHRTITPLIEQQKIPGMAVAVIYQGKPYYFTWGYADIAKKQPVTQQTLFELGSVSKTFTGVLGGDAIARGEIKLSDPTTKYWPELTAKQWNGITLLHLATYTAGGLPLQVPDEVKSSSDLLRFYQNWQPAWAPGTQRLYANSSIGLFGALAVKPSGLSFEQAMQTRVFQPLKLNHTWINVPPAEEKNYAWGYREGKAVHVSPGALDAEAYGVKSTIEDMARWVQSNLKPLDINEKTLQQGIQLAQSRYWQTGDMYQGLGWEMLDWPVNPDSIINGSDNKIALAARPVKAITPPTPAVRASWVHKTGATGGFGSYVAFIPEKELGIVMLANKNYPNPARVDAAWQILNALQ
T1 sequence (P62593 24-286 limits assumed): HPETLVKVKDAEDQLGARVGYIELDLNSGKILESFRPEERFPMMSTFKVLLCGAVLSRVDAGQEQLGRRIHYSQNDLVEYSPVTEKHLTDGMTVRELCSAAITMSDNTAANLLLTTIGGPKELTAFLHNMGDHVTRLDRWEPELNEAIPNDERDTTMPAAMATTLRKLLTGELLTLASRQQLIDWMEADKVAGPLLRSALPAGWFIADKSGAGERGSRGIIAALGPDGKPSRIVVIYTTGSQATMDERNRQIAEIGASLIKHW
Chain of Enterobacter cloacae P99 β-lactamase (P05364 21-381): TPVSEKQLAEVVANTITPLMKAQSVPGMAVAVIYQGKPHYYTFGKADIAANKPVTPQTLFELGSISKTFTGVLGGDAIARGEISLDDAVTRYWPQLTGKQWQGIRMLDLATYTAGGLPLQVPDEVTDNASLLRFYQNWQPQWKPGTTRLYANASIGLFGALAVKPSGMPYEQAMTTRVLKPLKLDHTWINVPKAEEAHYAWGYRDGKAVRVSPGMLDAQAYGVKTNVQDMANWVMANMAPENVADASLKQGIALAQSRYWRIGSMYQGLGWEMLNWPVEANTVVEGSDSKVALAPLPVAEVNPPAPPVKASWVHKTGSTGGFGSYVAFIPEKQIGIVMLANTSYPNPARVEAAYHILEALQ

SMILES	Ki [2] [µM]	MIC, agent alone (CAZ alone / BZB only) [8]	MIC, agent alone (CAZ alone / BZB only) [9]	MIC, agent alone (CAZ alone / BZB only) [14]	MIC of ceftazidime plus inhibitor ([4]; Table 3A, Ent. Der.)	MIC of inhibitor used alone without ceftazidime ([4]; Ent. Der.) [µg/mL]	MIC of amoxicillin plus inhibitor [4] [µg/mL]	MIC of ceftazidime plus inhibitor ([5]; Table 3A, pBGS19) [µg/mL]	MIC of inhibitor used alone without ceftazidime ([5]; pBGS19) [µg/mL]	MIC of inhibitor used alone without amoxicillin [5] [µg/mL]	MIC of ceftazidime plus inhibitor ([6]; Table 3A, AmpC-MHN)	MIC of inhibitor used alone without ceftazidime ([6]; AmpC-MHN) [µg/mL]	MIC of amoxicillin plus inhibitor [6] [µg/mL]	MIC of amoxicillin plus inhibitor [20] [µg/mL]	MIC of amoxicillin plus inhibitor [21] [µg/mL]	MIC of amoxicillin plus inhibitor [22] [µg/mL]	MIC of ceftazidime plus inhibitor ([7]; Table 3A)	MIC of inhibitor used alone without ceftazidime [7] [µg/mL]	MIC of amoxicillin plus inhibitor [23] [µg/mL]	Ki [3, 25] [µM]	further results
CN(C)c1cccc2c(S(=O)(=O)Nc3cccc(B(O)O)c3)cccc12 [NSULFB, m-(dansylamidophenyl)-boronic acid, reference compound]	88																				inhibitor of Enterobacter cloacae P99 β-lactamase (in words) [1]: submicromolar; Ki ([3]; Ki E. coli AmpC): 1.6 µM
CC(C)(O/N=C(\C(=O)N[C@@H]1C(=O)N2C(C(=O)[O-])=C(C[n+]3ccccc3)CS[C@H]12)c1csc(N)n1)C(=O)O [CAZ, ceftazidime, reference compound]		64	32	16																	MIC ([4]; Enterobacter cloacae, Table 3A, Ent. Der., CAZ alone, read-out: MIC of ceftazidime (CAZ)): 512 µg/mL; MIC ([5]; Escherichia coli, Table 3A, pBGS19, CAZ alone, read-out: MIC of ceftazidime (CAZ)): < 0.5 µg/mL; MIC ([6]; Enterobacter cloacae, Table 3A, AmpC-MHN, CAZ alone, read-out: MIC of ceftazidime (CAZ)): 32 µg/mL; MIC ([7]; Escherichia coli, Table 3A, CAZ alone, read-out: MIC of ceftazidime (CAZ)): 256 µg/mL; MIC, agent alone (CAZ alone / BZB only) [10]: 32; MIC, agent alone (CAZ alone / BZB only) [11]: 32; MIC, agent alone (CAZ alone / BZB only) (MC4 100/AmpC-Enter): 32; MIC, agent alone (CAZ alone / BZB only) [12]: 16; MIC, agent alone (CAZ alone / BZB only) [13]: 32; MIC, agent alone (CAZ alone / BZB only) [15]: 8; MIC, agent alone (CAZ alone / BZB only) [16]: 16; MIC, agent alone (CAZ alone / BZB only) [17]: 16; MIC, agent alone (CAZ alone / BZB only) [18]: 16; MIC, agent alone (CAZ alone / BZB only) [19]: 8; MIC, agent alone (CAZ alone / BZB only) (MC4100/AmpC-E. coli): 8
OB(O)c1cc2ccccc2c2ccccc12 [9PHNB, 9-Phenanthreneboronic acid]					512/128	>512	512	<0.25	128	256	8/2	256	256	512	512	64	256/64	128	512	12.6	MIC of inhibitor used alone without amoxicillin [4]: 256 µg/mL; MIC of inhibitor used alone without amoxicillin [6]: 256 µg/mL; MIC of inhibitor used alone without amoxicillin [20]: 256 µg/mL; MIC of inhibitor used alone without amoxicillin [21]: 256 µg/mL; MIC of inhibitor used alone without amoxicillin [22]: 256 µg/mL; MIC of inhibitor used alone without amoxicillin [23]: 256 µg/mL; Ki [2, 24]: 31 µM; dissociation constant relative to MAPB (AmpC) ([3]; compared with MAPB): two to three-fold worse (higher)
OB(O)c1cc2ccccc2s1 [BZBTH2B, benzo[b]thiophene-2-boronic acid]		512	512	128	32/8	512		<0.25	512			512					128/32	512			MIC, agent alone (CAZ alone / BZB only) [16]: 128; MIC, agent alone (CAZ alone / BZB only) [18]: 128; MIC, agent alone (CAZ alone / BZB only) [19]: 512
OB(O)c1ccc(-c2ccc(B(O)O)cc2)cc1 [BIPD, 4,4′-biphenyldiboronic acid]	> 100				128/32	>256	256	<0.12	>256	256	8/2	>256	128	128	256	128	256/64	>256	256	0.6	MIC of inhibitor used alone without amoxicillin [4]: 256 µg/mL; MIC of inhibitor used alone without amoxicillin [6]: 256 µg/mL; MIC of inhibitor used alone without amoxicillin [20]: 128 µg/mL; MIC of inhibitor used alone without amoxicillin [21]: 256 µg/mL; MIC of inhibitor used alone without amoxicillin [22]: 256 µg/mL; MIC of inhibitor used alone without amoxicillin [23]: 256 µg/mL; Ki ([3]; Example 1, read-out: Ki for AmpC): 0.18 ± 0.02 µM
C1COB([C@@H]2CCOC2)OCCN1 [DETHFB, diethanolamine-(3R)-(+)-tetrahydrofurnylboronate]					32/8		256	0.5	>512	256	4/1		32	128	512	64	256/64		512	1.1	Ki [2, 24]: 27 µM
